Results published in US12404304B1, “Telomerase reverse transcriptase (TERT) expression enhancing compounds and methods for using the same” (Sierra Sciences, LLC, priority 2007, dated 2025).

Experiments:
[1] = tested on: human TERT expression (hTERT mRNA); assay: Quantitative real-time RT-PCR of hTERT mRNA expression (Ct, transcripts) in compound-treated cells; assay type: cell-based
Outline: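 Read-out is cycle threshold, the cycle at which probe fluorescence released by Taq 5′-nuclease activity crosses a set level; Ct falls as hTERT mRNA rises. cDNA of treated and untreated cells was compared, with starting transcripts quantified against a known-cDNA standard curve.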

viable cells in culture = assay: Cell viability assay (CellTiter-Glo Luminescent Cell Viability Assay, ATP quantitation, percent of vehicle control)

| SMILES | Average Number of hTERT Transcripts [1] | Average Cell Viability after 24 Hours (% DMSO) (viable cells in culture) |
| --- | --- | --- |
| Cc1ccccc1NC(=O)C1CC(Cl)=CCC1C(=O)O (stereo not drawn) [compound 1374] | 5.48 | 107.65 |
| CCC(C)NC(=S)Nc1ccc([N+](=O)[O-])cc1 (stereo not drawn) [compound 1375] | 11.45 | 92.06 |
| Cc1ccccc1NC(=O)C1CCN(S(=O)(=O)c2ccc(Br)cc2)CC1 [compound 1376] | 4.72 | 88.77 |
| CC(C)C(=O)NC(c1ccc(C(C)C)cc1)c1ccc2ccccc2c1O (stereo not drawn) [compound 1377] | 10.23 | 67.09 |
| CCC(C)c1ccccc1OCCCCN1CCN(C)CC1 (stereo not drawn) [compound 1378] | 11.15 | 89.06 |
| O=C(O)c1ccc(NC(=S)NC(=O)c2cccc(Cl)c2)cc1 [compound 1379] | 12.37 | 82.14 |
| Brc1cccc(OCCCN2CCCCC2)c1 [compound 1380] | 5.98 | 104.34 |
| COc1ccc(C(=O)NC(=S)Nc2ccc(C(=O)O)cc2)cc1 [compound 1381] | 8.62 | 87.38 |
| COc1ccc(OCCCN2CCN(c3ccccc3OC)CC2)cc1 [compound 1382] | 6.08 | 98.31 |
| O=C(O)c1ccc(NC(=S)NC(=O)c2cccc3ccccc23)cc1 [compound 1383] | 53.78 | 74.00 |
| O=C(O)c1ccc(NC(=S)NC(=O)c2ccccc2I)cc1 [compound 1384] | 7.88 | 84.52 |
| O=[N+]([O-])c1ccc(S(=O)(=O)Nc2cc(Cl)ccc2O)cc1 [compound 1385] | 21.71 | 78.86 |
| O=C(Nc1ccc(OC(F)(F)C(F)F)cc1)c1ccccc1O [compound 1386] | 11.93 | 30.71 |
| COC(=O)COc1ccc(CSc2nnc(-c3ccc(Cl)cc3)n2-c2ccccc2)cc1 [compound 1388] | 42.56 | 29.68 |
| CN1CCCC(OC(=O)COc2ccc(F)cc2)C1 (stereo not drawn) [compound 1389] | 9.17 | 93.93 |
| Cc1ccc(C)c(OCC(=O)Nc2cc(Cl)c(Cl)cc2Cl)c1 [compound 1390] | 4.81 | 106.51 |
| CC(=O)Nc1ccccc1NS(=O)(=O)c1cccs1 [compound 1391] | 4.95 | 87.67 |
| CCC(C)NC(=S)Nc1ccc(F)cc1 (stereo not drawn) [compound 1392] | 4.99 | 102.61 |
| O=C(CCc1ccccc1)NC(c1ccc([N+](=O)[O-])cc1)c1c(O)ccc2ccccc12 (stereo not drawn) [compound 1393] | 23.22 | 62.25 |
| CCn1c(=S)[nH]c2scc(-c3ccc(OC)cc3)c2c1=O [compound 1394] | 7.00 | 100.14 |
| O=C(Nc1nc2ccc([N+](=O)[O-])cc2s1)c1cncc(Br)c1 [compound 1395] | 39.44 | 63.84 |
| Cc1cc(OCC(=O)Nc2ccc(S(=O)(=O)Nc3nccs3)cc2)ccc1C(C)C [compound 1396] | 12.14 | 88.25 |
| O=C(Oc1ccc([N+](=O)[O-])cc1)c1cc(S(=O)(=O)N2CCOCC2)cs1 [compound 1397] | 5.00 | 96.05 |
| CCCCN(CC)C(=O)CSc1ccccc1 [compound 1398] | 8.01 | 87.02 |
| COC(=O)COc1ccc2c(=O)c(Oc3ccc(-c4ccccc4)cc3)coc2c1 [compound 1400] | 12.41 | 80.39 |
| O=C(CSc1nc2ccccc2c(=O)n1-c1ccc(Cl)cc1)Nc1cccc(Cl)c1 [compound 1401] | 7.24 | 96.20 |
| Cc1oc2cc(OCC(=O)OCc3ccccc3)ccc2c(=O)c1Oc1ccccc1 [compound 1402] | 29.82 | 86.55 |

| SMILES | Average Number of hTERT Transcripts [1] | Average Cell Viability after 24 Hours (% DMSO) (viable cells in culture) |
| --- | --- | --- |
| COc1cc(C2C(C(=O)c3ccc(C)o3)=C(O)C(=O)N2CCCN2CCOCC2)cc(OC)c1OC (stereo not drawn) [compound 1403] | 9.95 | 95.26 |
| COC(=O)c1ccc(NC(=O)CSc2nnc(CNC(=O)c3ccccc3)n2C)cc1 [compound 1404] | 10.87 | 104.14 |
| CCn1c(COc2ccc(C(C)C)cc2)nnc1SCC(=O)Nc1nccs1 [compound 1405] | 3.33 | 110.82 |
| COc1ccc(C2CC(=O)C3=C(C2)Nc2ccccc2N(C(=O)CCC(=O)O)C3c2cccnc2)cc1OC (stereo not drawn) [compound 1406] | 4.62 | 105.29 |
| Cc1nn(-c2cc(N3CCN(S(=O)(=O)c4ccc(Cl)cc4)CC3)ccc2[N+](=O)[O-])c(=O)c2ccccc12 [compound 1407] | 3.38 | 109.75 |
| O=C(NC(c1ccccc1)c1ccc(Br)cc1)c1cccc(F)c1 (stereo not drawn) [compound 1408] | 3.47 | 89.70 |
| COc1ccc(-c2nnc(SCC(=O)Nc3ccc(S(N)(=O)=O)cc3)o2)cc1 [compound 1409] | 18.63 | 86.13 |
| O=C(Nc1nc(COc2ccccc2)cs1)c1sc2cc(Cl)ccc2c1Cl [compound 1410] | 8.90 | 75.12 |
| CC(C)(C)c1ccc(C(=O)NC(=S)Nc2c(Cl)cc(Cl)cc2Cl)cc1 [compound 1411] | 10.04 | 92.66 |
| CCOC(=O)c1ccc(NC(=O)CSc2nnc(-c3ccc(OC)cc3)o2)cc1 [compound 1412] | 6.19 | 92.98 |
| CCOC(=O)COc1ccc(S(=O)(=O)Nc2ccc(C(=O)OC)cc2)cc1 [compound 1413] | 25.20 | 80.11 |
| COC(=O)COc1ccc(NC(=O)c2ccc(F)cc2)cc1 [compound 1414] | 203.88 | 69.42 |
| COC(=O)COc1ccc(S(=O)(=O)N(C)Cc2ccccc2)cc1 [compound 1415] | 30.51 | 79.96 |
| COc1ccc(OC)c(N(C(=O)Cc2ccccc2)c2nc(-c3ccc(C)cc3)c(C)s2)c1 [compound 1416] | 15.42 | 95.26 |
| COc1ccc(C(=O)NC(=S)Nc2ccc(Nc3ccccc3)cc2)cc1Br [compound 1417] | 5.13 | 92.17 |
| O=C(NC(=S)Nc1cc([N+](=O)[O-])ccc1O)c1ccc(Br)o1 [compound 1418] | 42.80 | 94.19 |
| CCC(=O)NC(=S)Nc1ccccc1C#N [compound 1419] | 5.40 | 87.51 |
| Cc1cc(C)c(S(=O)(=O)Nc2ccccc2C(=O)NCCc2ccccc2)c(C)c1 [compound 1420] | 57.36 | 73.35 |
| COc1ccc(S(=O)(=O)N(CC(=O)NC2CC3CCC2C3)c2ccccc2)cc1OC (stereo not drawn) [compound 1421] | 6.96 | 104.42 |
| CC1CCN(C(=S)NC(=O)c2sc3ccccc3c2Cl)CC1 [compound 1422] | 19.95 | 102.65 |
| Cc1ccc(S(=O)(=O)Nc2ccccc2C(=O)NCCc2ccccc2)cc1[N+](=O)[O-] [compound 1424] | 37.45 | 94.37 |
| Cc1ccc2nc(-c3ccc(NC(=S)NC(=O)CCc4ccccc4)cc3)sc2c1 [compound 1425] | 17.07 | 79.15 |
| Cc1cccc(NC(=O)CSc2nnc(CNC(=O)c3ccc(Br)cc3)n2C)c1 [compound 1427] | 5.16 | 107.40 |
| O=C(NCCc1ccccc1)c1ccc(NC(=O)C2(c3ccccc3)CCCC2)cc1 [compound 1428] | 7.81 | 92.20 |
| O=C(Cn1c(=O)oc2ccccc21)Nc1cc(Cl)ccc1Cl [compound 1429] | 13.70 | 83.97 |
| O=C(NCC1COc2ccccc2O1)c1ccc(NC(=O)C2COc3ccccc3O2)cc1 (stereo not drawn) [compound 1430] | 23.55 | 88.00 |
| CCC(C)NS(=O)(=O)c1ccc(NC(=O)CN2C(=O)c3ccccc3C2=O)cc1 (stereo not drawn) [compound 1431] | 9.12 | 100.20 |
